Reference: PMC12845261, “Design, Synthesis, and Biological Evaluation of N-Acyl-Hydrazone-Linked Quinazolinone Derivatives with Antioxidant, Antimicrobial, and Anticancer Potential” (Pharmaceuticals, 2025)
≈ marks a conversion by molar mass, not a printed value.

Assays:
P. aeruginosa ATCC 27853 [1] = test: Quantitative antimicrobial activity, serial binary microdilution (MIC, IC50); type: cell-based; settings: Pseudomonas aeruginosa, ATCC27853, reference drug
Description: (§1) For the evaluation of antimicrobial activity, the following reference strains were used: S. aureus ATCC 25923, E. faecalis ATCC 29212, E. coli ATCC 25922, P. aeruginosa ATCC 27853 and C. albicans ATCC 10231.
(§2) Quantitative analysis was performed using the method of serial binary microdilutions in liquid medium (Tryptone Soy Broth for bacteria and Sabouraud Broth for yeasts) in plates with 96 wells. Stock solutions of 10 mg/mL were made in DMSO, and the range of concentrations tested for each compound was 5000–0.16 μg/mL. Simultaneously, the DMSO control was carried out under the same working conditions. Each well was inoculated with 10 μL of microbial suspension, adjusted to a density of 1.5 × 10^8 CFU/mL prepared from 18 to 24 h cultures. After 24 h of incubation at 37 °C, microbial growth and multiplication were evaluated both macroscopically and spectrophotometrically at 620 nm to establish the MIC values. […] Blanks were made for each sample concentration, and the formula was applied: Microbial viability(%)=Asample−Ablank/Astrain control−Asterility control·100

S. aureus ATCC 25923 [2] = test: as above; type: cell-based; settings: Staphylococcus aureus, ATCC25923; S. aureus ATCC 25923; reference drug
Description: as §1, §2

E. faecalis ATCC 29212 [3] = test: as above; type: cell-based; settings: Enterococcus faecalis, ATCC29212, reference drug
Description: as §1, §2

E. coli ATCC 25922 [4] = test: as above; type: cell-based; settings: Escherichia coli, ATCC25922; E. coli ATCC 25922; reference drug
Description: as §1, §2

P. aeruginosa ATCC 27853 [5] = test: Microbicidal activity (MMC); type: cell-based; settings: reference drug
Description: (§3) For the evaluation of antimicrobial activity, the following reference strains were used: S. aureus ATCC 25923, E. faecalis ATCC 29212, E. coli ATCC 25922, P. aeruginosa ATCC 27853 and C. albicans ATCC 10231. To determine the MMCs, 5 μL of culture was taken from each well and distributed on solid medium. The plates were incubated for 20–24 h at 37 °C. The lowest concentration at which no microbial growth was observed was considered MMC.

S. aureus ATCC 25923 [6] = test: Microbicidal activity (MMC); type: cell-based; settings: reference drug
Description: as §3

E. faecalis ATCC 29212 [7] = test: Microbicidal activity (MMC); type: cell-based; settings: reference drug
Description: as §3

E. coli ATCC 25922 [8] = test: Microbicidal activity (MMC); type: cell-based; settings: reference drug
Description: as §3

P. aeruginosa ATCC 27853 [9] = test: Qualitative antimicrobial activity, adapted Kirby-Bauer (inhibition zone); type: cell-based; settings: reference drug at 100 μg/mL
Description: (§4) For the evaluation of antimicrobial activity, the following reference strains were used: S. aureus ATCC 25923, E. faecalis ATCC 29212, E. coli ATCC 25922, P. aeruginosa ATCC 27853 and C. albicans ATCC 10231. The microbial suspensions were prepared at a density of 1.5 × 10^8 CFU/mL, corresponding to the McFarland 0.5 nephelometric standard. These suspensions were obtained from 18–24 h cultures developed on solid media (Mueller-Hinton for bacteria, Sabouraud for yeast). Antimicrobial activity was assessed using an adapted Kirby-Bauer method according to CLSI (Clinical and Laboratory Standards Institute). In addition to the 10 mg/mL stock solutions prepared in DMSO for each compound, a solvent control was used. Each stock solution (10 μL) was distributed in spot on the medium inoculated with the interest strain. After measuring the diameter of the inhibition zone (IZD) around the spot (mm), the results were expressed as the mean ± standard deviation (SD) for each compound tested in duplicate.

S. aureus ATCC 25923 [10] = test: as above; type: cell-based; settings: reference drug at 100 μg/mL
Description: as §4

E. faecalis ATCC 29212 [11] = test: as above; type: cell-based; settings: reference drug at 100 μg/mL
Description: as §4

E. coli ATCC 25922 [12] = test: as above; type: cell-based; settings: reference drug at 100 μg/mL
Description: as §4

P. aeruginosa ATCC 27853 [13] = test: Microbial adhesion, crystal violet (MICMA); type: cell-based; settings: reference drug
Description: as §1
(§5) Following quantitative analysis of antimicrobial activity, microbial adhesion was evaluated after methanol fixation and violet crystal staining (0.1%). The absorbance of the adhered biomass colored with violet crystal and resuspended in 33% acetic acid was measured at 490 nm.

S. aureus ATCC 25923 [14] = test: Microbial adhesion, crystal violet (MICMA); type: cell-based; settings: reference drug
Description: as §1, §5

E. faecalis ATCC 29212 [15] = test: Microbial adhesion, crystal violet (MICMA); type: cell-based; settings: reference drug
Description: as §1, §5

E. coli ATCC 25922 [16] = test: Microbial adhesion, crystal violet (MICMA); type: cell-based; settings: reference drug
Description: as §1, §5

C. albicans ATCC 10231 [17] = test: Quantitative antimicrobial activity, serial binary microdilution (MIC, IC50); type: cell-based; settings: Candida albicans, ATCC10231, reference drug
Description: as §1, §2

C. albicans ATCC 10231 [18] = test: Microbicidal activity (MMC); type: cell-based; settings: reference drug
Description: as §3

C. albicans ATCC 10231 [19] = test: Qualitative antimicrobial activity, adapted Kirby-Bauer (inhibition zone); type: cell-based; settings: reference drug at 140 μg/mL
Description: as §4

C. albicans ATCC 10231 [20] = test: Microbial adhesion, crystal violet (MICMA); type: cell-based; settings: reference drug
Description: as §1, §5

[21] = test system: HT-29 (human colorectal adenocarcinoma); test: Cytotoxicity, MTT assay; type: cell-based; settings: 24 h, tested range 3.125 to 50 µM
Description: (§6) For the cytotoxicity screening of the N-acyl-hydrazone derivatives, three cell lines were employed: HT-29 (human colorectal adenocarcinoma), A431 (human epidermoid carcinoma), and VERO (non-tumoral African green monkey kidney epithelial cells). All cell lines were obtained from the American Type Culture Collection (ATCC, Manassas, VA, USA), and maintained in appropriate culture media as follows: HT-29 and A431 cells were cultured in Dulbecco’s Modified Eagle Medium (DMEM), while VERO cells were cultured in Minimum Essential Medium (MEM). Both culture media were supplemented with 10% fetal bovine serum (FBS) and 1% penicillin-streptomycin mix, to formulate the complete culture medium. All cell lines were incubated at 37 °C in a humidified atmosphere containing 5% CO2. […] For the cytotoxicity screening, cells were seeded into sterile 96-well plates at an initial density of 1 × 10^4 cells/well and allowed to adhere for 24 h. Subsequently, cells were treated with increasing concentrations (3.125 to 50 µM) of compounds 1a–1f and 2 for 24 h. In parallel, 5-fluorouracil (5-FU, Sigma Aldrich, St. Louis, MO, USA) was included as a reference drug and tested over the same concentration range under identical experimental conditions. […] For the experimental control, culture medium was refreshed at the time of treatment application. […] Louis, MO, USA). Briefly, the culture media were discarded from each well and replaced with a fresh solution of MTT (1 mg/mL). Plates were incubated for 4 h at 37 °C, and the resulting formazan crystals were solubilized with isopropanol. The absorbance was measured at 550 nm using the FlexStation III multimodal reader (Molecular Devices, San Jose, CA, USA). All experiments were performed in triplicate and repeated in three independent assays. Cell viability was calculated as a percentage relative to the untreated control using the formula Cell Viability (%) = (Abs treated/Abs control) × 100. Data were processed using GraphPad Prism 6.0 and presented as mean ± standard deviation (SD). Statistical analysis was performed using one-way analysis of variance (ANOVA) followed by Dunnett’s post hoc test for comparison with the untreated control group.

[22] = test system: VERO (non-tumoral African green monkey kidney epithelial cells); test: Cytotoxicity, MTT assay; type: cell-based; settings: 24 h
Description: as §6

[23] = Total antioxidant capacity (TAC), DPPH method; settings: 30 min, 517 nm, compound stock 1 mg/mL in methanol, reference ascorbic acid TAC = 100%
Description: The total antioxidant capacity (TAC) was evaluated using diphenyl-1-picrylhydrazyl free radical (DPPH) method. The TAC value was determined in relation to the antioxidant capacity of the reference (ascorbic acid, TAC = 100%). […] The maximum value was recorded for 1c (~45%), followed by 1f and 1a (~43%), while the minimum for 1e (~19%).
In this study, the TAC values were obtained using the most-known DPPH method, in which the intense violet colour of the free radical solution is decreasing. Stock solutions of compounds 1a–1f and 2 were prepared in absolute methanol at a concentration of 1 mg/mL. A stock solution of 2,2-diphenyl-1-picrylhydrazyl free radical was obtained in the same solvent, at a concentration of 2 × 10^−4 M. To 1.8 mL of DPPH solution was added 0.2 mL of each solution of the compounds 1a–1f and 2 and the mixture was left in the dark for 30 min, followed by measurements of the absorbance at 517 nm. The following equation was used to calculate TAC: TAC%=Abs0 min−Abs30 min/Abs0min·100 where Abs0 min refers to the initial absorbance of the DPPH free radical solution, and Abs 30 min refers to the absorbance of the solution of DPPH and the added compound after 30 min. Ascorbic acid was used as a reference.

O=C(O)c1cn(C2CC2)c2cc(N3CCNCC3)c(F)cc2c1=O [Ciprofloxacin, ciprofloxacin, reference compound]
MIC (P. aeruginosa ATCC 27853 [1]): 0.39 µg/mL (≈ 1.18 µM) | MIC (S. aureus ATCC 25923 [2]): 0.78 µg/mL (≈ 2.35 µM) | MIC (E. faecalis ATCC 29212 [3]): 0.78 µg/mL (≈ 2.35 µM) | MIC (E. coli ATCC 25922 [4]): 0.2 µg/mL (≈ 0.604 µM) | MMC (P. aeruginosa ATCC 27853 [5]): 0.39 µg/mL | MMC (S. aureus ATCC 25923 [6]): 1.56 µg/mL | MMC (E. faecalis ATCC 29212 [7]): 6.25 µg/mL | MMC (E. coli ATCC 25922 [8]): 0.78 µg/mL | IZD (100 μg/mL, mm) (P. aeruginosa ATCC 27853 [9]): 15.33 ± 0.58 mm | IZD (100 μg/mL, mm) (S. aureus ATCC 25923 [10]): 17.33 ± 0.58 mm | IZD (100 μg/mL, mm) (E. faecalis ATCC 29212 [11]): 8.33 ± 0.58 mm | IZD (100 μg/mL, mm) (E. coli ATCC 25922 [12]): 34.00 ± 2.00 mm | MICMA (P. aeruginosa ATCC 27853 [13]): 0.39 µg/mL | MICMA (S. aureus ATCC 25923 [14]): 0.39 µg/mL | MICMA (E. faecalis ATCC 29212 [15]): 0.78 µg/mL | MICMA (E. coli ATCC 25922 [16]): <0.10 µg/mL

CC(=O)N1CCN(c2ccc(OCC3COC(Cn4ccnc4)(c4ccc(Cl)cc4Cl)O3)cc2)CC1 (stereo not drawn) [Ketoconazole, ketoconazole, reference compound]
MIC (C. albicans ATCC 10231 [17]): 8.75 µg/mL (≈ 16.5 µM) | MMC (C. albicans ATCC 10231 [18]): 35 µg/mL | IZD (140 μg/mL, mm) (C. albicans ATCC 10231 [19]): 6.5 ± 0.71 mm | MICMA (C. albicans ATCC 10231 [20]): 0.27 µg/mL

O=c1[nH]cc(F)c(=O)[nH]1 [Compound 5-FU, 5-fluorouracil, reference compound]
IC50 [21]: not reached within the tested concentration range | Maximum reduction in viability ([22]; 50 µM): approximately 25% | IC50 ([22]; tested range 3.125 to 50 µM): not reached within the tested range

O=C1O[C@H]([C@@H](O)CO)C(O)=C1O [ascorbic acid, reference compound]
TAC (%) [23]: 100%
